Positions count from the first letter of the chain named.
What was measured:
p.Asp65Tyr mutant = target: T1, p.Asp65Tyr mutant (Homo sapiens, UniProt O15305, D65Y); assay: DSF thermal stability of purified homodimeric mutant; format: binding; settings: 80µM of the compound
T1 construct: His6 (N); made in house; host or cells: E. coli BL21 Star DE3
T1 sequence (O15305 1-246 D65Y): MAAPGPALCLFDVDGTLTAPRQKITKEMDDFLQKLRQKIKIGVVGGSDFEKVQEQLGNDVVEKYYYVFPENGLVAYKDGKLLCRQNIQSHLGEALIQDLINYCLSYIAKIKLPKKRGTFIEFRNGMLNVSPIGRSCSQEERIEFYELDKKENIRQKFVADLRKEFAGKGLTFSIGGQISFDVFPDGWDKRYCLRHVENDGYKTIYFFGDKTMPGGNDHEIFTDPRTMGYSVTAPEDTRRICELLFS
Method: (§1) The effect of Compound A on the stability of different PMM2 folding mutants was studied by DSF. The selected mutants were the folding mutants, p.Val44AIa, p.Asp65Tyr, p.Arg162Trp, p.Thr237Met and p.Cys241Ser and the catalytic and folding mutants, p.Arg123Gln and p.Arg141His as previously described. The effect was studied at 40 µM and 80 µM compound concentration over the thermal stability of the purified homodimeric mutants by DSF.
(§2) In this case, the DSF was performed in a final reaction volume of 50 µl, containing 0.075 mg/ml of pure PMM2 protein in Hepes 20 mM, NaCl 200 mM, SYPRO Orange 5X, 1 µl of the hit compound and 2% DMSO in a LightCycler Multiwell Plate 96 (Roche).

p.Arg123Gln mutant = target: T2, p.Arg123Gln mutant (Homo sapiens, UniProt O15305, R123Q); assay: as above; format: binding; settings: at both concentrations (40 µM and 80 µM)
T2 construct: His6 (N); made in house; host or cells: E. coli BL21 Star DE3
T2 sequence (O15305 1-246 R123Q): T1 sequence (O15305 1-246 D65Y) with Y65D, R123Q
Method: as §1, §2

p.Thr237Met mutant = target: T3, p.Thr237Met mutant (Homo sapiens, UniProt O15305, T237M); assay: as above; format: binding; settings: 80µM of the compound
T3 construct: His6 (N); made in house; host or cells: E. coli BL21 Star DE3
T3 sequence (O15305 1-246 T237M): T1 sequence (O15305 1-246 D65Y) with Y65D, T237M
Method: as §1, §2

p.Asp65Tyr = target: T4, p.Asp65Tyr (Homo sapiens, UniProt O15305, D65Y); assay: Degradation time course (half-life) in prokaryotic transcription-translation-coupled system; format: biochemical; settings: compound at 80µM
T4 construct: His6 (N); made in house; host or cells: RTS 100 E. coli HY cell-free transcription-translation system
T4 sequence (O15305 1-246 D65Y): T1 sequence (O15305 1-246 D65Y)
Method: In order to deepen in the effect of Compound A on the PMM2 stability, degradation time courses were analyzed on WT protein and folding mutants with residual activity, p.Asp65Tyr, p.Arg162Trp and p.Thr237Met in presence of the compound. Additionally, we included in this assay the dimeric mutant p.Pro113Leu in order to study the effect of the compound on a mutant of this type.
Dimeric PMM2 used for thermal stability analysis was produced by the RTS 100 E. coli HY Kit transcription-translation-coupled system (5 PRIME, Hilden, Germany), following the manufacturer's recommendations. To produce PMM2 proteins, the reaction mix provided by the kit, together with 500 ng of the corresponding expression vector and 1 µl of the compound for reaching a final concentration of 40µM or 80µM or 1µl of DMSO. Reactions were incubated for 30 min at 30°C. The reaction was then stopped by adding 1 µl of DNase (1 mg/mL) and 1 µl of RNase (1 mg/mL). It was then further incubated at 37°C and 1.5 µl aliquots removed at different times. The compound was therefore present during the folding process. Proteins were immunodetected by Western blot and relative amounts of protein were determined by densitometry for the half-life determination.

pure WT-PMM2 = target: T5, pure WT-PMM2 (Homo sapiens, UniProt O15305); assay: Inhibitory effect (IC50) on pure enzyme, coupled spectrophotometric activity assay; format: biochemical; settings: 2.5 mM was the maximum concentration used
T5 construct: His6 (N); made in house; host or cells: E. coli BL21 Star DE3
T5 sequence (O15305 1-246): T1 sequence (O15305 1-246 D65Y) with Y65D
Method: Given that the description of most of the described pharmacological chaperones has a competitive inhibitory effect for the target enzyme, we decided to analyze Compound A's IC50.
For the calculation of IC50 values, pure WT-PMM2 was used. Fifty nanograms of Nanodrop-measured pure dimeric PMM2 (molar extinction coefficient 23755 M^-1 cm^-1) were incubated with 1 µl of the compound at different concentrations, along with 0.5% BSA for 10 min at 30°C. After that time, the activity assays were performed by a spectrophotometric method based on the NADPH determination at 340 nm produced by a chain reaction of different coupled enzymes and the final production of […] by Glucose-6P-dehydrogenase enzyme (de Koning et al., 1998; Van Schaftingen y Jaeken, 1995). The corresponding DMSO controls were included in the assay. The IC50 values for the inhibitory compound were calculated using non-linear regression (GraphPad Prism 6 software) by plotting the log concentration of the compound (M) versus WT-PMM2 enzyme activity (%).

Tm compared with WT-PMM2 basal Tm (p.Asp65Tyr mutant): reached the WT-PMM2 basal Tm | Tm compared with WT-PMM2 basal Tm (p.Arg123Gln mutant): reached the WT-PMM2 basal Tm | Tm compared with WT-PMM2 basal Tm (p.Thr237Met mutant): reached the WT-PMM2 basal Tm | half-life increase, ranking among protein/concentration combinations (p.Asp65Tyr): the one with the higher shift | inhibitory effect on the activity of the pure WT-PMM2 protein (pure WT-PMM2): no inhibitory effect
Structure (SMILES): O=C(Nc1cccc(Cl)c1)N(c1ccccn1)c1ccccn1 [Compound A, 3-(3-Chloro-phenyl)-1,1-di-pyridin-2-yl-urea]

Source: patent publication EP3275863A1, “COMPOUNDS FOR TREATING CONGENITAL DISORDERS OF GLYCOSYLATION” (Universidad Autónoma de Madrid, priority 2016, dated 2018)
